In patent US20230220224A1, “AQUEOUS DISPERSION AND IMAGE RECORDING METHOD” (FUJIFILM CORPORATION, priority 2020, published 2023):

Settings: in water at 20° C.

## CN1C(C)(C)CC(O)CC1(C)C [Example 4-OH-PMP, 4-hydroxy-1,2,2,6,6-pentamethylpiperidine]
  Neutralizer Solubility in water: 4.8 g/100 mL

## CC(C)NC(C)C [DIPA, diisopropylamine]
  Neutralizer Solubility in water: 10 g/100 mL
